Laboratory results reported in patent US6369225B1, “Compounds having activity as inhibitors of cytochrome P450RAI” (Allergan Sales, Inc., priority 2000, dated 2002).
pIC50, pKd: −log10 of the molar value.

Tests used:
P450RAI-1 = biological target: T1, P450RAI-1 (Homo sapiens, UniProt O43174); experiment: P450RAI-1 cell-based inhibitor assay; details: P450RAI-1 stably transfected HeLa cells, [3H]-RA metabolism, 3 hours at 37° C.; read-out: P450RAI INHIBITION DATA INTACT HELA IC50
T1 construct: expressed in transfected cells; host or cells: HeLa cells, stably transfected, hygromycin selection
T1 sequence (O43174 1-497): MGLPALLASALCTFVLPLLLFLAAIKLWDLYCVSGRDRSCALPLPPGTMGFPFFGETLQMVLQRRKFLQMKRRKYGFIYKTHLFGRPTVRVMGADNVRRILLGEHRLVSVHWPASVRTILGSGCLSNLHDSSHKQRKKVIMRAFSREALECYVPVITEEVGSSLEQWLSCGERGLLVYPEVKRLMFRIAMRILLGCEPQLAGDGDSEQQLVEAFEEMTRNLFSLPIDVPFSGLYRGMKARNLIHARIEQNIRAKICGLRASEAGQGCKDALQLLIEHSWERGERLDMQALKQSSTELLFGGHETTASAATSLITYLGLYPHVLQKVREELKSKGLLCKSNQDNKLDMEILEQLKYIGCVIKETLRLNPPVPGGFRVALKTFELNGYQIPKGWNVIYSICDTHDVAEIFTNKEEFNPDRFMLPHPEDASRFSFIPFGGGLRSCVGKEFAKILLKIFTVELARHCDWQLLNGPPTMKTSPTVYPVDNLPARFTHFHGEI
Method: P450RAI-1 stably transfected HeLa cells are maintained in […] tissue culture dishes in Modified Eagle's Medium (MEM) containing 10% Fetal Bovine Serum (FBS) and 100 μg/ml hygromycin. Exponentially growing cells are harvested by incubating in trypsin. Cells are then washed with 1× Phosphate Buffered Saline (PBS) and plated in a 48-well plate at 5×10^5 cells in 0.2 ml MEM medium containing 10% FBS and 0.05 μCi[^3H]-RA in the presence or absence of increasing concentrations of the test compounds. The compounds are diluted in 100% DMSO and then added in triplicate wells at either 10, 1 or 0.1 μM final concentration. As a positive control for RA metabolism inhibition, cells are also incubated with ketoconazole at 100, 10 and 1 μM. Cell are incubated for 3 hours at 37° C. […] The water soluble radioactivity is quantified using a β-scintillation counter. IC50 values represent the concentration of inhibitor required to inhibit all-trans-RA metabolism by 50 percent and are derived manually from log-transformed data.

skin of hairless mice = experiment: topical skin irritation test in hairless mice; type: in vivo, mouse; details: topical in acetone, once daily days 1 through 5, mean ±SD, range 0-21
Text: Mice were housed individually throughout the dosing period.
Doses are disclosed as nmol/25 g.
The grading scale used is as follows:
Values can range from 0-9.
Values can range from 0-8.

RARα = biological target: T2, RARα (Homo sapiens, UniProt P10276); experiment: ligand binding assay, RARα; details: Kd line of EC50/(EFFICACY)/Kd, read-out: RAR Kd α
T2 sequence (P10276 1-462): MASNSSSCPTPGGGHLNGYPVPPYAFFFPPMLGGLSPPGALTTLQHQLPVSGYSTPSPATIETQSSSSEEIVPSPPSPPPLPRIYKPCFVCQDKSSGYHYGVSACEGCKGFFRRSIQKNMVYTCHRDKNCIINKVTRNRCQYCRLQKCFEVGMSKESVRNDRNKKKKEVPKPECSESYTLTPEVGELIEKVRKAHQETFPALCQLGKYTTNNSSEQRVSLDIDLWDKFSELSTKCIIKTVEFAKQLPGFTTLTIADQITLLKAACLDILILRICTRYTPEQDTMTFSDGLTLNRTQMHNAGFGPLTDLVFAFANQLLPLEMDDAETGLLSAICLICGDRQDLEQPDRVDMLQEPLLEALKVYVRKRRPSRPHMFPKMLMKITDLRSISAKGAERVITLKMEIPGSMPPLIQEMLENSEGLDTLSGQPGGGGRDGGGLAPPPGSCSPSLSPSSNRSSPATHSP
Text: (§1) Assays described below measure the ability of a compound to bind to, and/or activate various retinoid receptor subtypes. When in these assays a compound binds to a given receptor subtype and activates the transcription of a reporter gene through that subtype, then the compound is considered an agonist of that receptor subtype. […] In the below described assays the ability of the compounds to bind to RARα, RARβ, RARγ, RXRα, RXRβ and RXRγ receptors, and the ability or inability of the compounds to activate transcription of a reporter gene through these receptor subtypes can be tested.
(§2) A holoreceptor transactivation assay and a ligand binding assay which measure the antagonist/agonist like activity of the compounds of the invention, or their ability to bind to the several retinoid receptor subtypes, respectively, are described in published PCT Application No. WO WO93/11755 (particularly on pages 30-33 and 37-41) published on Jun. 24, 1993, the specification of which is also incorporated herein by reference. A detailed experimental procedure for holoreceptor transactivations has been described by Heyman et al. Cell 68, 397-406, (1992); Allegretto et al. J. Biol. Chem. 268, 26625-26633, and Mangelsdorf et al. The Retinoids: Biology, Chemistry and Medicine, pp 319-349, Raven Press Ltd., New York, which are expressly incorporated herein by reference. The results obtained in this assay are expressed in EC50 numbers, as they are also in the chimeric receptor transactivation assay. The results of ligand binding assay are expressed in Kd numbers. (See Cheng et al. Biochemical Pharmacology Vol. 22 pp 3099-3108, expressly incorporated herein by reference.)
(§3) The results if the ligand binding assay for several preferred compounds of the invention are included in Table 1.

RARγ = biological target: T3, RARγ (Homo sapiens, UniProt P13631); experiment: ligand binding assay, RARγ; details: Kd line of EC50/(EFFICACY)/Kd, read-out: RAR Kd γ
T3 sequence (P13631 1-454): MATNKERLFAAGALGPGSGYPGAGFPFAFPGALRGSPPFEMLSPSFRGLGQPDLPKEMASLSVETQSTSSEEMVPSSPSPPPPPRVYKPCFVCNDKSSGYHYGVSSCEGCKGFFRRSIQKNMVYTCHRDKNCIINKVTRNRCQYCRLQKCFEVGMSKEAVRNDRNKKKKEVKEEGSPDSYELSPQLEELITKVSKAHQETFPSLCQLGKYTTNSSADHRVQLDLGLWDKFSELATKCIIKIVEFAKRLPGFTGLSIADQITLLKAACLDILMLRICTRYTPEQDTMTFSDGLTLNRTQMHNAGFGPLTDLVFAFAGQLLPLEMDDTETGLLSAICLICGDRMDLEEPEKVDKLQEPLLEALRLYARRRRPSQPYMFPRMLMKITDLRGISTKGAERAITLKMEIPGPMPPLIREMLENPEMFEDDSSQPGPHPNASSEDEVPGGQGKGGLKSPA
Text: as §1, §2, §3

RARβ = biological target: T4, RARβ (Homo sapiens, UniProt P10826); experiment: ligand binding assay, RARβ; details: Kd line of EC50/(EFFICACY)/Kd, read-out: RAR Kd β
T4 sequence (P10826 1-455): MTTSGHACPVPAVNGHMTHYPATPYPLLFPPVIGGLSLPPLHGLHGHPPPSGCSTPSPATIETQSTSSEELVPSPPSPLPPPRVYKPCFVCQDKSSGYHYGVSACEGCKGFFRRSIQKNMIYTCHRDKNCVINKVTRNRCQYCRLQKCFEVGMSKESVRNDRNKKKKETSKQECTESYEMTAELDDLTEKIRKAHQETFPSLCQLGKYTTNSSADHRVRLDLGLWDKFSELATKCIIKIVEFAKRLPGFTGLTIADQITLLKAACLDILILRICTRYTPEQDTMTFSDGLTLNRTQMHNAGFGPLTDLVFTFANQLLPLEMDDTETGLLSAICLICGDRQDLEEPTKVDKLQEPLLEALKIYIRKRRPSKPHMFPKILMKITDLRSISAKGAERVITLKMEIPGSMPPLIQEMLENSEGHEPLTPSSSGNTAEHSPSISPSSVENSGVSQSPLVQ
Text: as §1
as §2, with “A detailed experimental procedure for holoreceptor transactivations has been described by Heyman et al. Cell 68, 397-406, (1992); Allegretto et al. J. Biol. Chem. 268, 26625-26633, and Mangelsdorf et al. The Retinoids: Biology, Chemistry and Medicine, pp 319-349, Raven Press Ltd., New York, which are expressly incorporated herein by reference.” left out

CC1(C)CC2(CC2)Oc2c(C3CC3)cc(C(=O)Oc3ccc(CC(=O)O)cc3)cc21 [Compound 58, Spiro[2H-1-benzopyran-2,1′-cyclopropane]-6-carboxylic Acid, 8-cyclopropyl-3,4-dihydro-4,4-dimethyl-, 4-(carboxymethyl)phenyl Ester]
pIC50 (P450RAI-1): 6.74
Cutaneous Toxicity Score (Blackjack Score) (skin of hairless mice; 100 nmole (nmol/25 g)): 0 ± 0
Cutaneous Toxicity Score (Blackjack Score) (skin of hairless mice; 300 nmole (nmol/25 g)): 0 ± 0
Cutaneous Toxicity Score (Blackjack Score) (skin of hairless mice; 1000 nmole (nmol/25 g)): 0 ± 0

CC(C)OC1(c2ccc(C#Cc3ccc(CC(=O)O)cc3)cc2)CC1 [Compound 74, {4-[4-(1-Isopropoxycyclopropyl)-phenylethynyl]-phenyl}-acetic Acid]
pKd (RARα): 4.96
pKd (RARγ): < 5.00
pIC50 (P450RAI-1): 5.46
pKd (RARβ): 4.85

COC1(c2ccc(C#Cc3ccc(CC(=O)O)cc3)cc2)CC1 [Compound 70, {4-[4-(1-Methoxycyclopropyl)-phenylethynyl]-phenyl}-acetic Acid]
pKd (RARα): < 5.00
pKd (RARγ): < 5.00
pIC50 (P450RAI-1): < 5.00
pKd (RARβ): < 5.00

CC1(C)CC(C)(C)c2cc(C#Cc3ccc(CC(=O)O)c(F)c3)ccc2O1 [Compound 32, [2-Fluoro-4-(2,2,4,4-tetramethyl-chroman-6-yl-ethynyl)phenyl]acetic Acid]
pKd (RARα): 4.57
pKd (RARγ): 4.89
pIC50 (P450RAI-1): 6.74
pKd (RARβ): 5.37

CC1(C)CCC(=O)c2ccc(C#Cc3ccc(CC(=O)O)c(F)c3)cc21 [Compound 15, [2-Fluoro-4-(8,8-dimethyl-5-oxo-5,6,7,8-tetrahydro-naphthalene-2-yl-ethynyl)phenyl]-acetic Acid]
Cutaneous Toxicity Score (Blackjack Score) (skin of hairless mice; 100 nmole (nmol/25 g)): 1 ± 1
Cutaneous Toxicity Score (Blackjack Score) (skin of hairless mice; 1000 nmole (nmol/25 g)): 5 ± 2

Cc1cc(C#Cc2ccc(CC(=O)O)cc2)ccc1C1(OC(C)C)CC1 [Compound 86, {4-[4-(1-Isopropoxycyclopropyl)-3-methyl-phenylethynyl]-phenyl}-acetic Acid]
pKd (RARα): < 5.00
pKd (RARγ): < 5.00
pIC50 (P450RAI-1): 5.85
pKd (RARβ): < 5.00

CCc1cc(C#Cc2ccc(CC(=O)O)cc2)ccc1C1(OCc2ccccc2)CC1 [Compound 94, {4-[4-(1-Benzyloxycyclopropyl)-3-ethyl-phenylethynyl]-phenyl}-acetic Acid]
pKd (RARα): < 5.00
pKd (RARγ): < 5.00
pIC50 (P450RAI-1): < 5.00
pKd (RARβ): < 5.00

CC1(C)CC2(CC2)Oc2ccc(C#Cc3ccc(CC(=O)O)cc3)cc21 [Compound 42, Benzeneacetic Acid, 4-[(3,4-dihydro-4,4-dimethylspiro[2H-1-benzopyran-2,1′-cyclopropane]-6-yl)ethynyl]-]
pKd (RARα): 4.82
pKd (RARγ): < 5.00
pIC50 (P450RAI-1): 6.72
pKd (RARβ): 5.44

CC1(C)CC(C)(C)c2cc(C#Cc3ccc(C(=O)O)c(F)c3)ccc2O1 [Compound 30, 2-Fluoro-4-(2,2,4,4-tetramethyl-chroman-6-yl-ethynyl)-benzoic Acid]
pKd (RARα): 7.85
pKd (RARγ): 7.08
pIC50 (P450RAI-1): 6.55
pKd (RARβ): 8.66

O=C(O)Cc1ccc(C#Cc2ccc(C3(OCc4ccccc4)CC3)cc2)cc1 [Compound 78, {4-[4-(1-Benzyloxycyclopropyl)-phenylethynyl]-phenyl}-acetic Acid]
pKd (RARα): < 5.00
pKd (RARγ): < 5.00
pIC50 (P450RAI-1): < 5.00
pKd (RARβ): < 5.00

Cc1cc(C#Cc2ccc(CC(=O)O)cc2)ccc1C1(OCc2ccccc2)CC1 [Compound 82, {4-[4-(1-Benzyloxycyclopropyl)-3-methyl-phenylethynyl]-phenyl}-acetic Acid]
pKd (RARα): < 5.00
pKd (RARγ): < 5.00
pIC50 (P450RAI-1): < 5.00
pKd (RARβ): < 5.00

O=C(O)c1ccc(C#Cc2ccc(C3(OCc4ccccc4)CC3)cc2)cc1 [Compound 77, 4-[4-(1-Benzyloxycyclopropyl)-phenylethynyl]-benzoic Acid]
pKd (RARα): 5.66
pKd (RARγ): 7.80
pIC50 (P450RAI-1): < 5.00
pKd (RARβ): 6.65

CC1(C)CC(C)(C)c2cc(C#Cc3ccc(C(=O)O)cc3)cc(C3CC3)c2O1 [Compound 34, 4-(8-Cyclopropyl-2,2,4,4-tetramethyl-chroman-6-yl-ethynyl)-benzoic Acid]
pKd (RARα): 7.21
pKd (RARγ): 8.60
pIC50 (P450RAI-1): 6.89
pKd (RARβ): 7.82
